Experimental data from patent US12570659B2, “Bicyclic heteroaryl compounds useful as IRAK4 inhibitors” (BRISTOL-MYERS SQUIBB COMPANY, priority 2019, dated 2026).
pIC50: −log10 of the molar value.

Tests used:
[1] = biological target: JAK3 kinase (Homo sapiens (Human), UniProt P52333); test: JAK3 Homogeneous Time Resolved Fluorescence (HTRF) Assay; type: binding; conditions: for pIC50: competition binding with fluorescein-labeled ATP competitive probe; for Ratio of JAK3 IC50 to IRAK4 IC50: selectivity for IRAK4 over JAK3
Method: JAK3 Homogeneous Time Resolved Fluorescence (HTRF) Assay
A time resolved FRET-based competition binding assay was used to assess test article binding to JAK3 kinase. His-tagged or GST-tagged kinase at a concentration of 1 nM was incubated with 0.2 nM Tb-labeled detection antibody (anti-His or anti-GST), test compound, and fluorescein-labeled ATP competitive probe at a concentration corresponding to the probe's equilibrium dissociation constant for one hour. Fluorescence at 495 nm and 520 nm was measured using an EnVision microplate reader to quantify FRET between Tb-labeled detection antibody and fluorescein-labeled probe. Background subtracted FRET ratios were normalized to the maximum signal obtained in the absence of test compound. These values were converted to a percent inhibition. Percent inhibition was determined for test compounds at 11 concentrations. The IC50, defined as the concentration of the competing test compound needed to reduce specific binding of the probe by 50%, was calculated using the 4 parameter logistic equation to fit the data.

[2] = biological target: IRAK4 (Homo sapiens (Human), UniProt Q9NWZ3); test: IRAK4 Inhibition Assay; type: biochemical; conditions: ATP 500 μM; IRAK4 0.6 nM; 60 min room temperature
Method: IRAK4 Inhibition Assay The assays were performed in U-bottom 384-well plates. […] The reaction was initiated by the combination of IRAK4 with substrates and test compounds. The reaction mixture was incubated at room temperature for 60 min. and terminated by adding 45 μL of 35 mM EDTA to each sample. The reaction mixture was analyzed on the Caliper LABCHIP® 3000 (Caliper, Hopkinton, MA) by electrophoretic separation of the fluorescent substrate and phosphorylated product. Inhibition data were calculated by comparison to no enzyme control reactions for 100% inhibition and vehicle-only reactions for 0% inhibition.

Sequence of JAK3 kinase (P52333 whole entry): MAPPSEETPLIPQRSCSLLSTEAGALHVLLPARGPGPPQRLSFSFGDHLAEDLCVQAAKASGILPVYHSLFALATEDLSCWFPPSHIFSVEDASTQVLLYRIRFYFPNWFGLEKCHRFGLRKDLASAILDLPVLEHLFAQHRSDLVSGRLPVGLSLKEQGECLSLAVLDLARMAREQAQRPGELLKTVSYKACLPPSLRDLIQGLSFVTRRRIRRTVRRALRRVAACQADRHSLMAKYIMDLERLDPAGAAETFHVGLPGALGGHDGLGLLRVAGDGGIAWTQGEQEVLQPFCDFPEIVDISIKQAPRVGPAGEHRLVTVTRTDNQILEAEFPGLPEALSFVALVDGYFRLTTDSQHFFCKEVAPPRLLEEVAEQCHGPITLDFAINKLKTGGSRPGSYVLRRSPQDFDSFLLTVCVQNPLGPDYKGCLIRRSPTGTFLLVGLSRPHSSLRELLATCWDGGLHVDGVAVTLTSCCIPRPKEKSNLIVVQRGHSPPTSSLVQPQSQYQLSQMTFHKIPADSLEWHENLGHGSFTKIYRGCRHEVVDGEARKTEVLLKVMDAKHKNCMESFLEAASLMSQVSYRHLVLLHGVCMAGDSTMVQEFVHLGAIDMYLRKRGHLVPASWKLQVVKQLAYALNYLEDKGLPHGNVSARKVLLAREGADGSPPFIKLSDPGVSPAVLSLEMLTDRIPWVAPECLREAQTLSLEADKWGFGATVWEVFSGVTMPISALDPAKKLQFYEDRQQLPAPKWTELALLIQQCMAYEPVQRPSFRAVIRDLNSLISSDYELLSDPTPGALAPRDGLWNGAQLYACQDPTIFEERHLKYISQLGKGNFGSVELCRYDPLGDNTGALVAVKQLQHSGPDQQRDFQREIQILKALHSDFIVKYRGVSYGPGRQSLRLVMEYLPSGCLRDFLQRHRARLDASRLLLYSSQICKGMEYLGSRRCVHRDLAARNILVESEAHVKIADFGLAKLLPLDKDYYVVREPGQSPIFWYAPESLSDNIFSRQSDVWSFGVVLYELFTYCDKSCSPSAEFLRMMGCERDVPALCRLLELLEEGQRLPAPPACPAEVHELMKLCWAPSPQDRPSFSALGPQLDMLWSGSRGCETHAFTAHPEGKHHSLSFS
Sequence of IRAK4 (Q9NWZ3 whole entry, species assumed): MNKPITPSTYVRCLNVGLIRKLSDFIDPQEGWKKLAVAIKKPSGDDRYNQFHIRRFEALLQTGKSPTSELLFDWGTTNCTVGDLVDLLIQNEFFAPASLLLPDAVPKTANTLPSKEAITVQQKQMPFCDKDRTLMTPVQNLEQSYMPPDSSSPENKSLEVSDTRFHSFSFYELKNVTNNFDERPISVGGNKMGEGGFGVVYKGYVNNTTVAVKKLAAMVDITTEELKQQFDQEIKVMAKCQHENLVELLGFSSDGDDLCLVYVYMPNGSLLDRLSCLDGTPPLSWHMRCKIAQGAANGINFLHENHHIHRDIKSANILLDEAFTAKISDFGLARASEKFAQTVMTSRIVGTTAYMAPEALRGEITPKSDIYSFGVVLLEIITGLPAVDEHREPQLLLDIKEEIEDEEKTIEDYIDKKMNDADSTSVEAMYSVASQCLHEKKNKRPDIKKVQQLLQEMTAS

SMILES | pIC50 [1] | Ratio of JAK3 IC50 to IRAK4 IC50 [1] | pIC50 [2]
CC(=O)N[C@H]1CC[C@H](NC(=O)c2cnn3cc(-c4ccc(C(N)=O)cc4F)cc3c2NC(C)C)CC1 [Example 76, N-((1r,4r)-4-acetamidocyclohexyl)-6-(4-carbamoyl-2-fluorophenyl)-4-(isopropylamino) pyrrolo[1,2-b]pyridazine-3-carboxamide] | < 4.30 | >543 | 7.04
COc1cc(-c2cc3c(NC(C)C)c(C(=O)NCCC(C)(C)O)cnn3c2)c(F)cn1 [Example 78, 6-(5-fluoro-2-methoxypyridin-4-yl)-N-(3-hydroxy-3-methylbutyl)-4-(isopropylamino) pyrrolo[1,2-b]pyridazine-3-carboxamide] | < 4.30 | >5495 | 8.04
CC(C)Nc1c(C(=O)NC[C@@H](F)C(C)(C)O)cnc2cc(-c3cc[nH]c(=O)c3)nn12 [Example 154, (R)—N-(2-fluoro-3-hydroxy-3-methylbutyl)-7-(isopropylamino)-2-(2-oxo-1,2-dihydropyridin-4-yl)pyrazolo[1,5-a]pyrimidine-6-carboxamide] | < 4.30 | >538 | 7.03
CC(C)Nc1c(C(=O)NC[C@@H](F)C(C)(C)O)cnn2cc(Nc3ccncn3)cc12 [Example 43, (R)—N-(2-fluoro-3-hydroxy-3-methylbutyl)-4-(isopropylamino)-6-(pyrimidin-4-ylamino) pyrrolo[1,2-b] pyridazine-3-carboxamide] | < 4.30 | >617 | 7.09
CC(=O)N[C@H]1CC[C@H](NC(=O)c2cnn3cc(-c4cn[nH]c4)cc3c2NC(C)C)CC1 [Example 61, N-((1r,4r)-4-acetamidocyclohexyl)-4-(isopropylamino)-6-(1H-pyrazol-4-yl)pyrrolo[1,2-b]pyridazine-3-carboxamide] | < 4.30 | >4545 | 7.96
CC(C)Nc1c(C(=O)NC[C@@H](F)C(C)(C)O)cnc2cc(-c3ccncc3)nn12 [Example 122, (R)—N-(2-fluoro-3-hydroxy-3-methylbutyl)-7-(isopropylamino)-2-(pyridin-4-yl)pyrazolo[1,5-a] pyrimidine-6-carboxamide] | < 5.00 | >625 | 7.80
CC(C)Nc1c(C(=O)NC[C@@H](F)C(C)(C)O)cnc2cc(-c3ccncc3F)nn12 [Example 137, (R)—N-(2-fluoro-3-hydroxy-3-methylbutyl)-2-(3-fluoropyridin-4-yl)-7-(isopropylamino) pyrazolo[1,5-a]pyrimidine-6-carboxamide] | < 5.00 | >1190 | 8.08
CC(C)(O)[C@H](F)CNC(=O)c1cnn2cc(-c3cccnc3)cc2c1NC1CC1 [Example 32, (R)-4-(cyclopropylamino)-N-(2-fluoro-3-hydroxy-3-methylbutyl)-6-(pyridin-3-yl)pyrrolo[1,2-b]pyridazine-3-carboxamide] | < 4.30 | >4545 | 7.96
CC(C)(O)[C@H](F)CNC(=O)c1cnn2cc(-c3nccs3)cc2c1NC1CCOCC1 [Example 19, (R)—N-(2-fluoro-3-hydroxy-3-methylbutyl)-4-((tetrahydro-2H-pyran-4-yl)amino)-6-(thiazol-2-yl) pyrrolo[1,2-b]pyridazine-3-carboxamide] | < 5.00 | >667 | 7.82
Cc1cc(F)ncc1-c1cc2c(NCCC(C)(C)O)c(C(=O)NC[C@@H](F)C(C)(C)O)cnn2c1 [Example 24, (R)—N-(2-fluoro-3-hydroxy-3-methylbutyl)-6-(6-fluoro-4-methylpyridin-3-yl)-4-((3-hydroxy-3-methylbutyl)amino)pyrrolo[1,2-b]pyridazine-3-carboxamide] | < 5.00 | >71 | 6.85
CC(C)Nc1c(C(=O)NC[C@@H](F)C(C)(C)O)cnn2cc(-c3ccc(C#N)nc3)nc12 [Example 101, (R)-2-(6-cyanopyridin-3-yl)-N-(2-fluoro-3-hydroxy-3-methylbutyl)-8-(isopropylamino)imidazo[1,2-b]pyridazine-7-carboxamide] | < 4.30 | >714 | 7.15
CC(C)Nc1c(C(=O)NC[C@@H](F)C(C)(C)O)cnn2cc(-n3ncc4cc(C#N)cnc43)cc12 [Example 39, (R)-6-(5-cyano-1H-pyrazolo[3,4-b]pyridin-1-yl)-N-(2-fluoro-3-hydroxy-3-methylbutyl)-4-(isopropylamino) pyrrolo[1,2-b]pyridazine-3-carboxamide] | < 4.30 | >2381 | 7.68
CC(C)(O)[C@H](F)CNC(=O)c1cnc2cc(-c3cccnc3)nn2c1N[C@H]1CCN(c2cnc(F)nc2)C1 [Example 138, N—((R)-2-fluoro-3-hydroxy-3-methylbutyl)-7-(((S)-1-(2-fluoropyrimidin-5-yl)pyrrolidin-3-yl)amino)-2-(pyridin-3-yl) pyrazolo[1,5-a]pyrimidine-6-carboxamide] | < 5.00 | >16 | 6.19
CC(C)Nc1c(C(=O)NC[C@@H](F)C(C)(C)O)cnc2cc(-c3cccnc3F)nn12 [Example 125, (R)—N-(2-fluoro-3-hydroxy-3-methylbutyl)-2-(2-fluoropyridin-3-yl)-7-(isopropylamino)pyrazolo[1,5-a] pyrimidine-6-carboxamide] | < 5.00 | >208 | 7.32
CC(C)Nc1c(C(=O)NCCN2CCOCC2)cnn2cc(-c3ccncc3F)nc12 [Example 106, 2-(3-fluoropyridin-4-yl)-8-(isopropylamino)-N-(2-morpholinoethyl)imidazo[1,2-b]pyridazine-7-carboxamide] | < 4.30 | >2273 | 7.66
COc1cccc(-c2cc3ncc(C(=O)NC[C@@H](F)C(C)(C)O)c(NC(C)C)n3n2)n1 [Example 144, (R)—N-(2-fluoro-3-hydroxy-3-methylbutyl)-7-(isopropylamino)-2-(6-methoxypyridin-2-yl)pyrazolo[1,5-a] pyrimidine-6-carboxamide] | < 4.30 | >36 | 5.85
CC(C)Nc1c(C(=O)NCCC(C)(C)O)cnn2cc(-c3ccncc3)nc12 [Example 105, N-(3-hydroxy-3-methylbutyl)-8-(isopropylamino)-2-(pyridin-4-yl)imidazo[1,2-b]pyridazine-7-carboxamide] | < 4.30 | >806 | 7.21
CC(C)Nc1c(C(=O)N[C@H]2CC[C@H](N)CC2)cnn2cc(-c3cccnc3)cc12 [Example 52, N-((1r,4r)-4-aminocyclohexyl)-4-(isopropylamino)-6-(pyridin-3-yl)pyrrolo[1,2-b]pyridazine-3-carboxamide] | ~4.37 | ~1075 | 7.40
CC(=O)N[C@H]1CC[C@H](NC(=O)c2cnn3cc(-c4c(C)ccnc4F)cc3c2NC(C)C)CC1 [Example 66, N-((1r,4r)-4-acetamidocyclohexyl)-6-(2-fluoro-4-methylpyridin-3-yl)-4-(isopropylamino)pyrrolo[1,2-b]pyridazine-3-carboxamide] | 4.74 | 305 | 7.23
